Results on one compound are retold here after patent US20180244548A1, “USE OF COPPER-CARBON COMPOSITE NANOMATERIAL IN ALGAE CONTROL” (Suzhou Guanjie Nano Anti-bacteria Coating Technology Co., …, priority 2015, published 2018).

Assay [1] concerns scenedesmus (green algae), chlorella (green algae) and microcystis aeruginosa (blue algae). Kind of assay: laboratory algae growth inhibition, α content of chlorophyll over time. The class given is cell-based. To be noted: copper sulfate 6 ppm.
Assay [2] has as its system scenedesmus, chlorella and microcystis aeruginosa cells. Kind of assay: scanning electron microscope appearance observation of algae cells. In kind it is cell-based. To be noted: nanomaterial 6.25-50 ppm; activated carbon 50 ppm; copper oxide 50 ppm; copper sulfate 6 ppm.

SMILES strings stand for the structures. Values joined by “and” are separate entries in the source; they are usually repeats but may differ in a detail not shown here. Equal entries are not always repeated.

In the case of `O=S(=O)([O-])[O-].[Cu+2]` [copper sulfate], the “inhibition time of algae growth” value in assay [1] is 7 to 9 days and 7 days. Besides, the “appearance of algae cells in scanning electron micrographs” value in assay [2] was “completely changed”.
